{
  "source": "ChEMBL document CHEMBL5465560",
  "about": "“Selectivity Literature for EUbOPEN Chemogenomic Library” (2024)",
  "key": {"[1]": {"target": "Death-associated protein kinase 2 (Homo sapiens) (UniProt Q9UIK4)", "details": "at 10 µM"}, "[2]": {"target": "Serine/threonine-protein kinase PLK2 (Homo sapiens, UniProt Q9NYY3)", "sequence (Q9NYY3 whole entry, looked up)": "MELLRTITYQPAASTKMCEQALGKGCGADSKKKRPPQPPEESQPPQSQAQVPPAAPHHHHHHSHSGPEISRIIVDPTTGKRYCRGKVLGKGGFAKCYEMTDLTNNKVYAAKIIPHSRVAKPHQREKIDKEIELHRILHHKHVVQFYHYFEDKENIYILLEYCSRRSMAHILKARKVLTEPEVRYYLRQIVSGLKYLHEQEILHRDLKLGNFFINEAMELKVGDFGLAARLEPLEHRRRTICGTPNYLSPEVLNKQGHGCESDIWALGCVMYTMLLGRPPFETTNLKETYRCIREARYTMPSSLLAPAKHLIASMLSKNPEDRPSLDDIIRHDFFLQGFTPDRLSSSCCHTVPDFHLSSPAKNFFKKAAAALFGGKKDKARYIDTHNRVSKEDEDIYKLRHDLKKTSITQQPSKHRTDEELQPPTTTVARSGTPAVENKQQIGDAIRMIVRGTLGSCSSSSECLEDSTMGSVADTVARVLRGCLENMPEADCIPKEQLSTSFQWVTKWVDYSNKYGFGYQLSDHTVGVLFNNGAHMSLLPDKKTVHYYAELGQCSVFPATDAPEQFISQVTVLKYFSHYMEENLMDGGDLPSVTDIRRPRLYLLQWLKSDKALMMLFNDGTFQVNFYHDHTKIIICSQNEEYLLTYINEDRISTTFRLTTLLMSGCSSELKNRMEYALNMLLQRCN", "test": "Selectivity interaction (KinomeScan (DiscoverX)) EUB0000229b PLK2", "details": "at 10 µM"}, "[3]": {"target": "T1, Calcium/calmodulin-dependent protein kinase type IV (Homo sapiens) (UniProt Q16566)", "T1 sequence (whole entry)": "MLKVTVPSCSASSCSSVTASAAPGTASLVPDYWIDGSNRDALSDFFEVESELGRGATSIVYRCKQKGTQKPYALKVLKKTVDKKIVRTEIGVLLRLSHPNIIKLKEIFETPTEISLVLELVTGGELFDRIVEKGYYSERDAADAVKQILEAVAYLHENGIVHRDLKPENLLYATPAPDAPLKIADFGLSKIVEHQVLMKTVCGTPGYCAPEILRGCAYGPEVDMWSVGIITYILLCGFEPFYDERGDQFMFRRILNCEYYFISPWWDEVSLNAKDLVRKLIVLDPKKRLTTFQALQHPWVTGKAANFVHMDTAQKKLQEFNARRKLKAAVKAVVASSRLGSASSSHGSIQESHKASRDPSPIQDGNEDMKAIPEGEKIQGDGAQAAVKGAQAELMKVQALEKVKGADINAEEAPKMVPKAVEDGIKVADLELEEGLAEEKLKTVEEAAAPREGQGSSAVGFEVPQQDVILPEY", "test": "Selectivity interaction (KinomeScan (DiscoverX)) EUB0000655a CAMK4", "details": "at 10 µM"}, "[4]": {"target": "Homeodomain-interacting protein kinase 1 (Homo sapiens, UniProt Q86Z02)", "sequence (Q86Z02 whole entry, looked up)": "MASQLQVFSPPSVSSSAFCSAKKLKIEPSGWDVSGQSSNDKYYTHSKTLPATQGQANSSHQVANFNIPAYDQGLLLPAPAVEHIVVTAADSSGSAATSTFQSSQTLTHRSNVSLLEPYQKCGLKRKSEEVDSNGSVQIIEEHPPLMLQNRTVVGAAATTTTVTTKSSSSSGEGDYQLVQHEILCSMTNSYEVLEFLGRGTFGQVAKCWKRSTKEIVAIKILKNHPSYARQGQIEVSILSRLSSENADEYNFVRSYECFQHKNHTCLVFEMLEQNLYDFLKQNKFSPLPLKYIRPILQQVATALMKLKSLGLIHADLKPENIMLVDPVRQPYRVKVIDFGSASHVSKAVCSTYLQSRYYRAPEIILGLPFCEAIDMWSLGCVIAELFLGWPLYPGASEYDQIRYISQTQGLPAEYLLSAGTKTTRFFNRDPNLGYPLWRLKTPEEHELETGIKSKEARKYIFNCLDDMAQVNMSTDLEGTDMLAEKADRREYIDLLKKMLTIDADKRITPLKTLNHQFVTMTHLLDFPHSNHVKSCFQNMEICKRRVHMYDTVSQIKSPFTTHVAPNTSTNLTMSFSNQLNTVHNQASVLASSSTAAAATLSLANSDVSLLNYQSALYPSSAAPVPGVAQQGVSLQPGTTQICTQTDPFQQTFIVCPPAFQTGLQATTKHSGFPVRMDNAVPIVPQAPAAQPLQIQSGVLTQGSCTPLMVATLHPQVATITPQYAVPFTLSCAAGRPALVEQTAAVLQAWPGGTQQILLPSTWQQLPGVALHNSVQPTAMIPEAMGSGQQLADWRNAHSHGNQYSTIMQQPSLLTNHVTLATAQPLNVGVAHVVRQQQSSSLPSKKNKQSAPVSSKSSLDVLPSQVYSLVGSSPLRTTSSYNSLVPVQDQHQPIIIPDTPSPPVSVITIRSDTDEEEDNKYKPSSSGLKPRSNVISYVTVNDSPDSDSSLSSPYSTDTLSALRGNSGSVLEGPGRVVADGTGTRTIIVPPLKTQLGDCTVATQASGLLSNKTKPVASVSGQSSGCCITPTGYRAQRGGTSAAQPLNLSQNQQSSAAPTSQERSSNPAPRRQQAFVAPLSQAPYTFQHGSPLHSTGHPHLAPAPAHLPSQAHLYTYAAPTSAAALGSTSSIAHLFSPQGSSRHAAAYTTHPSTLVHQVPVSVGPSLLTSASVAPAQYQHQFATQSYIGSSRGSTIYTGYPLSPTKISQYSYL", "test": "Selectivity interaction (ProQinase) EUB0000171b HIPK1"}, "[5]": {"target": "Cyclin-dependent kinase 9 (Homo sapiens, UniProt P50750)", "sequence (P50750 whole entry)": "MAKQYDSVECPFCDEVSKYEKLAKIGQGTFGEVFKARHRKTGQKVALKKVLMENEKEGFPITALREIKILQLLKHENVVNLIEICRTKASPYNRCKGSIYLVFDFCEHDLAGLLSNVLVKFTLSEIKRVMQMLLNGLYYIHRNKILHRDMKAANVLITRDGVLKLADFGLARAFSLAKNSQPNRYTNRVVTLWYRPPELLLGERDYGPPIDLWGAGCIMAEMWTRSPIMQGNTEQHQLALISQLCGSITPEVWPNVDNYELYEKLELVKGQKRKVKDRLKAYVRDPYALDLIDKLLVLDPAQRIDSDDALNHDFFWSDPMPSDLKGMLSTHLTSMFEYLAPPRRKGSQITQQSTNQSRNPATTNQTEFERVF", "test": "Selectivity interaction (KinomeScan (DiscoverX)) EUB0001079a CDK9", "details": "at 1 µM"}, "[6]": {"target": "T2, Serine/threonine-protein kinase BRSK1 (Homo sapiens) (UniProt Q8TDC3)", "T2 sequence (whole entry)": "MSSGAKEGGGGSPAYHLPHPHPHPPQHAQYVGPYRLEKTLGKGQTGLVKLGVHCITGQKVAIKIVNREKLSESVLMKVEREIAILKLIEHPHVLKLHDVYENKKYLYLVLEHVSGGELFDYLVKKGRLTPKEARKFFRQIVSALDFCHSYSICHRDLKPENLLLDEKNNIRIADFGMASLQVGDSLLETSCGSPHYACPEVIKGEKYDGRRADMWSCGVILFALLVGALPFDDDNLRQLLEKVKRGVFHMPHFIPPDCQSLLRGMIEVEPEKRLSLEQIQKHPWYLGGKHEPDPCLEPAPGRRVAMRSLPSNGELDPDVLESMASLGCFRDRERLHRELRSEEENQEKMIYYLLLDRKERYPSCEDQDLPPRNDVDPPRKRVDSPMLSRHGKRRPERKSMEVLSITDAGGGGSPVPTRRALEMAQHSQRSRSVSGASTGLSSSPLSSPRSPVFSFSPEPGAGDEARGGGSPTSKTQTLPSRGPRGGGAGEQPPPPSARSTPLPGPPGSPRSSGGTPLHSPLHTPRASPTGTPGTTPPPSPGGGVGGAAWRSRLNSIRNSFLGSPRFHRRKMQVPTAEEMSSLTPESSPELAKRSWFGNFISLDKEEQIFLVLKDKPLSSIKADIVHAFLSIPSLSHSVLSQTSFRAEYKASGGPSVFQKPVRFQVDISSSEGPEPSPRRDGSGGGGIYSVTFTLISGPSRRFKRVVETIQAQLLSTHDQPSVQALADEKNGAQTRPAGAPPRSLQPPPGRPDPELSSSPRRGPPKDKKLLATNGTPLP", "test": "Selectivity interaction (Kinase panel (Z-LYTE Assay)) EUB0001632a BRSK1", "details": "at 10 µM"}, "[7]": {"target": "Protein polybromo-1 (Homo sapiens) (UniProt Q86U86)", "test": "Selectivity interaction (Bromodomain panel (DSF asssay)) EUB0000270b PBRM1"}, "[8]": {"target": "G protein-coupled receptor kinase 4 (Homo sapiens) (UniProt P32298)", "test": "Selectivity interaction (Kinase panel (Invitrogen)) EUB0000639a GRK4", "details": "at 200 nM"}, "[9]": {"target": "Serine/threonine-protein kinase SIK3 (Homo sapiens) (UniProt Q9Y2K2)", "sequence (Q9Y2K2 whole entry, looked up)": "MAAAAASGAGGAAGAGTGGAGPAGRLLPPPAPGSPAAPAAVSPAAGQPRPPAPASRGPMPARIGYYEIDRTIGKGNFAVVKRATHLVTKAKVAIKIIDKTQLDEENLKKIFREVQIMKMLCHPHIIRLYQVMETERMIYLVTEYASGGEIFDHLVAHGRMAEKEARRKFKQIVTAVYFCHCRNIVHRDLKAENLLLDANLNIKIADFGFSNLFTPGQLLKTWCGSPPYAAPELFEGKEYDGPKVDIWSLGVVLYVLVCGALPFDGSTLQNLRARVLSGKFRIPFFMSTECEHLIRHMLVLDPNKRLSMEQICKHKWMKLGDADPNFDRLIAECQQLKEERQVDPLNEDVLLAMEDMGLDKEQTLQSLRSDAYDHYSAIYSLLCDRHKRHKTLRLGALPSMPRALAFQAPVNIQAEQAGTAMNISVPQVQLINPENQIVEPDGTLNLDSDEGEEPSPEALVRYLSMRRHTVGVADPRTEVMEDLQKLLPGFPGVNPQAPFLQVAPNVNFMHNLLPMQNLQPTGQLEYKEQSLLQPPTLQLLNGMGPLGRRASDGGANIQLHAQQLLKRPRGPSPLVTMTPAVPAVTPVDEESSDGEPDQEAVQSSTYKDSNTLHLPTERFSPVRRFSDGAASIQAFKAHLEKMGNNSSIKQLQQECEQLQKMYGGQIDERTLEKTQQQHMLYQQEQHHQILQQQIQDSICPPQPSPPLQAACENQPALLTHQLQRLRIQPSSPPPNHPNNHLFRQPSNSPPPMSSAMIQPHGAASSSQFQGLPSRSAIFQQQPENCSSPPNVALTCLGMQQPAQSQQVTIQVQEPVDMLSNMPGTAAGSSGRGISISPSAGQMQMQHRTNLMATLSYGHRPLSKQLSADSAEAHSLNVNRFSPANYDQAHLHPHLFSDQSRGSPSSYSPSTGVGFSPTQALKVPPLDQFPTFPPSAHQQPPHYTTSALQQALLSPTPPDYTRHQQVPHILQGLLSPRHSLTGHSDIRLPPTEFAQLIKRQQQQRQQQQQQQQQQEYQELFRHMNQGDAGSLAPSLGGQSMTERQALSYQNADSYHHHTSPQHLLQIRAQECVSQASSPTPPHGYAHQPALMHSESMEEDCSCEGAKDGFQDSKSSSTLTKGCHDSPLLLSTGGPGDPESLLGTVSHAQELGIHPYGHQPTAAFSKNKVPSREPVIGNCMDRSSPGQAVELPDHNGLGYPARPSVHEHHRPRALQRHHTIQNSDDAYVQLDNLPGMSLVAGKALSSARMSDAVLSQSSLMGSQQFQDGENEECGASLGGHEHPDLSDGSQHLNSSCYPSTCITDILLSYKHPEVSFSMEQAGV", "test": "Selectivity interaction (KinomeScan (DiscoverX)) EUB0000607a SIK3", "details": "at 10 µM"}, "[10]": {"target": "T3, Discoidin domain-containing receptor 2 (Homo sapiens) (UniProt Q16832)", "T3 sequence (whole entry)": "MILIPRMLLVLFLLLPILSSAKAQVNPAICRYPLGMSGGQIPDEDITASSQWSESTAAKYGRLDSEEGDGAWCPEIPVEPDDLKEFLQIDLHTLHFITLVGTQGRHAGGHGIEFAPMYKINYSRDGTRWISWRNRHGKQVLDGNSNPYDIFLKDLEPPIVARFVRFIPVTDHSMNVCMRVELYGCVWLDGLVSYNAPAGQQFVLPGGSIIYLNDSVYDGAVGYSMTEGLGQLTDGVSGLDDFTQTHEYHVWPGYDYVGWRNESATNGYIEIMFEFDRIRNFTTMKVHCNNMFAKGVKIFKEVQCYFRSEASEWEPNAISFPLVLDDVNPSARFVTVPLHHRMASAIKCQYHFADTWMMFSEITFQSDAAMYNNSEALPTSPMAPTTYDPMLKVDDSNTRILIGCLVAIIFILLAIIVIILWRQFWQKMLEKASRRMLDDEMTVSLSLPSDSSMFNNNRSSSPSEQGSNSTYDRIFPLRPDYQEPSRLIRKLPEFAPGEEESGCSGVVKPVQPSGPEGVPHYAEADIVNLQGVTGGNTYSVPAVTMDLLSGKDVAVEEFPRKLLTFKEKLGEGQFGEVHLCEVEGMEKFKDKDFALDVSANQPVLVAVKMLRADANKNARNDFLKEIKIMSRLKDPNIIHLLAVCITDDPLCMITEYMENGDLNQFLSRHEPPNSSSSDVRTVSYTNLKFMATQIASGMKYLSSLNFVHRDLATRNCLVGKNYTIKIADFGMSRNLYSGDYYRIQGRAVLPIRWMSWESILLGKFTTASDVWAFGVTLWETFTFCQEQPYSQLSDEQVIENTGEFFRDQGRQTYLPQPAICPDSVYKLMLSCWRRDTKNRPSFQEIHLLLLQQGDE", "test": "Selectivity interaction (KinomeScan (DiscoverX)) EUB0001049a DDR2", "details": "at 1 µM"}, "[11]": {"target": "High affinity nerve growth factor receptor (Homo sapiens, UniProt P04629)", "sequence (P04629 33-796 limits assumed)": "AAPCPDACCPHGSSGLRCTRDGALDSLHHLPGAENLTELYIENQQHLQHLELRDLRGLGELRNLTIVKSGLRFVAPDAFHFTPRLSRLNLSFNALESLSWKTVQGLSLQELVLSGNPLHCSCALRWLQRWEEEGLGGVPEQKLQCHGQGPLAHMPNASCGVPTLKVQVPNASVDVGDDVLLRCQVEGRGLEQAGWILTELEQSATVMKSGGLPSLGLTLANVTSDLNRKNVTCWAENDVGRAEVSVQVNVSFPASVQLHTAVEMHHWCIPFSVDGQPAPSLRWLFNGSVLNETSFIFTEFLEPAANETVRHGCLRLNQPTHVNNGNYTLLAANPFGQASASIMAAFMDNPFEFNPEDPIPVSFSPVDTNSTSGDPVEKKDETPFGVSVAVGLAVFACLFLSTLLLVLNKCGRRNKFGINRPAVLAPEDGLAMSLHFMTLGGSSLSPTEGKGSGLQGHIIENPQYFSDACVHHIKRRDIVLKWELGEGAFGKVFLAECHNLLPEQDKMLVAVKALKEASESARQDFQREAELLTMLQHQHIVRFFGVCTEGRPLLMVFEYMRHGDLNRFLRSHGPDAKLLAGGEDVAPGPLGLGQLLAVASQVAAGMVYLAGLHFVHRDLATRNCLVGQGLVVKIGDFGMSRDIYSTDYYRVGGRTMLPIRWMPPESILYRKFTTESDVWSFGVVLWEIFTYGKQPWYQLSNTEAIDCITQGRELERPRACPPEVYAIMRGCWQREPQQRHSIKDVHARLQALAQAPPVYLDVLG", "test": "Selectivity interaction (Kinase panel (literature)) EUB0001199aCl NTRK1", "details": "at 1 µM"}, "[12]": {"target": "Cyclin-dependent kinase 8 (Homo sapiens, UniProt P49336)", "sequence (P49336 whole entry)": "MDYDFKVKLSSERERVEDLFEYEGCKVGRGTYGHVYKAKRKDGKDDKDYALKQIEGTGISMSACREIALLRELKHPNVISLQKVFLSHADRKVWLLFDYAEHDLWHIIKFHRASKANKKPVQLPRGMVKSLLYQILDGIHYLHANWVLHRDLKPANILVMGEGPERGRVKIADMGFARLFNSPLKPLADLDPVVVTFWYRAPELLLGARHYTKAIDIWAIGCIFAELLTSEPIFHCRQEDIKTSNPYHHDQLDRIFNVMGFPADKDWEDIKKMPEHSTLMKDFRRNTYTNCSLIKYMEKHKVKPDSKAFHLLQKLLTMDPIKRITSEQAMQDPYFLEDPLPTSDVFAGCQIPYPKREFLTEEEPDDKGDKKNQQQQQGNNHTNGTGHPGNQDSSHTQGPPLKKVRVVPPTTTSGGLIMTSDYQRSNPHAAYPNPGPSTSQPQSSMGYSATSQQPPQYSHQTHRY", "test": "Selectivity interaction (KinomeScan (DiscoverX)) EUB0001619a CDK8", "details": "at 1 µM"}},
  "data": [
    {"molecule": "CCN(CC)CCCCNc1ncc2cc(-c3cc(OC)cc(OC)c3)c(NC(=O)NC(C)(C)C)nc2n1", "values": [
      {"measurement": "% of control", "setting": "[1]", "result": 100, "unit": "%"}
    ]},
    {"molecule": "COc1cc(N(C)c2ccnc3ccc(C(F)(F)F)cc23)cc(OC)c1OC", "values": [
      {"measurement": "% binding", "setting": "[2]", "result": 88, "unit": "%"}
    ]},
    {"molecule": "CN(C)CCOc1ccc(-c2nc(-c3ccncc3)c(-c3ccc4c(c3)CC/C4=N\\O)[nH]2)cc1", "values": [
      {"measurement": "% of control", "setting": "[3]", "result": 87, "unit": "%"}
    ]},
    {"molecule": "C=CC(=O)Nc1cccc(C(=O)Nc2ccc(Nc3cc(-c4[nH]c(SC)nc4C)ccn3)cc2)c1", "values": [
      {"measurement": "% of control", "setting": "[4]; at 1 µM", "result": 103, "unit": "%"},
      {"measurement": "% of control", "setting": "[4]; at 5 µM", "result": 143, "unit": "%"}
    ]},
    {"molecule": "Nc1cnc(N2CCc3cc(S(=O)(=O)Nc4c(F)cc(Cl)cc4F)cc(N4CCCC4=O)c32)nc1", "note": "[TP-020n]", "values": [
      {"measurement": "% of control", "setting": "[5]", "result": 100, "unit": "%"}
    ]},
    {"molecule": "Cn1cc(-n2cnc3c(NCc4nc5cc(Cl)c(Cl)cc5[nH]4)nc(N4CCOCC4)nc32)cn1", "values": [
      {"measurement": "% of control", "setting": "[6]", "result": 11.9, "unit": "%"}
    ]},
    {"molecule": "Cc1cc(CN)cc(C)c1-c1ncn(C)c1-c1cncn1C", "values": [
      {"measurement": "dTM", "setting": "[7]", "result": -1.91, "unit": "K"}
    ]},
    {"molecule": "CC[C@@H]1[C@H](F)C(=O)N[C@@H]1COc1nccc2cc(C(N)=O)c(OC)cc12", "note": "[ZIMLOVISERTIB]", "values": [
      {"measurement": "% of inhibition", "setting": "[8]", "result": -5.8, "unit": "%"}
    ]},
    {"molecule": "CNC(=O)Nc1ccc(-c2nc(N3CC4CCC(C3)O4)c3cnn(C4CCC5(CC4)OCCO5)c3n2)cc1", "values": [
      {"measurement": "% of control", "setting": "[9]", "result": 35, "unit": "%"}
    ]},
    {"molecule": "COc1cc(Nc2nc(C)cc(-c3cnn4nc(OC)ccc34)n2)cc(C(F)(F)F)c1", "values": [
      {"measurement": "% of control", "setting": "[10]", "result": 65, "unit": "%"}
    ]},
    {"molecule": "CN1Cc2nccc(-c3cn(C)nc3-c3ccc(F)cc3)c2C1=O", "values": [
      {"measurement": "% of inhibition", "setting": "[11]", "result": 12, "unit": "%"}
    ]},
    {"molecule": "N#Cc1cccc(-c2c[nH]c3ncnc(N4CCOCC4)c23)c1", "values": [
      {"measurement": "% of control", "setting": "[12]", "result": 80, "unit": "%"}
    ]}
  ]
}
